Reference: patent US20070280915A1, “Combination Therapies Employing A Composition Comprising A Hmg Coa Reductase Inhibitor And A Vitamin B6 Related Compound” (priority 2003, published 2007)
Values joined by “and” are separate entries in the source; they are usually repeats but may differ in a detail not shown here. Identical values can stand only once. Like-named read-outs stand apart in the source and are kept apart here.

Legend:
CYP2B6 = biological target: T1, CYP2B6 (Homo sapiens, UniProt P20813); assay: CYP2B6 inhibition assay (substrate EFC)
T1 sequence (P20813 1-491): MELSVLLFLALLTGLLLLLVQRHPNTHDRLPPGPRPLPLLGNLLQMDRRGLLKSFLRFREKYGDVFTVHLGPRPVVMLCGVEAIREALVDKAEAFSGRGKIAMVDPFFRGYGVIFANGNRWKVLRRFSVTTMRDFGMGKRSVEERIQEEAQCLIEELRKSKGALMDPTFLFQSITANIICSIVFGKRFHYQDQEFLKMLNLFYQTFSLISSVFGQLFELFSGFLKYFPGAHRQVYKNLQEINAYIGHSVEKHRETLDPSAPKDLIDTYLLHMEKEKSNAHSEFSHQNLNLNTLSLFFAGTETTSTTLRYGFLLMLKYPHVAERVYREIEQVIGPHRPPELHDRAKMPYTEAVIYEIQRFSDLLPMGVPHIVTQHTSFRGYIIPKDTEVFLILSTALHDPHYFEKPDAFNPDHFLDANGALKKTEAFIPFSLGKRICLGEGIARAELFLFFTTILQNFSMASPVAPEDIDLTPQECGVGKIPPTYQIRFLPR
From the text: (§1) The CYP inhibition assays used microsomes (Supersomes®, Gentest Corp., Woburn, Mass.) prepared from insect cells, each expressing an individual CYP subtype (CYP1A2, CYP2A6, CYP2B6, CYP2C8, CYP2C9, CYP2C19, CYP2D6, CYP2E1 or CYP3A4) expressed from the corresponding human CYP cDNA using a baculovirus expression vector. The microsomes also incorporated supplemental cDNA-expressed human reductase and/or cytochrome b5, as these enzymes stimulate the activity of the CYPs, allowing for a reduction in the amount of enzyme required per reaction (Gentest Corp.). The assays monitored, via fluorescence detection, the formation of a fluorescent metabolite following incubation of the microsomes with a specific CYP substrate. […] Reactions (0.2 mL) were performed in 96-well microtitre plates at 37° C. in the presence of an NADPH regenerating system [NADP+, glucose-6-phosphate (G6P), glucose-6-phosphate dehydrogenase (G6PDH)] and MgCl2. […] All determinations were performed in duplicate. The reagent solutions used for all of the CYP subtype assays, except CYP2C19 and CYP3A4, were prepared by MBDI. For CYP2C19 and CYP3A4, complete reagent kits purchased from Gentest Corp. (CYP2C19/CEC: Cat. No. HTS-4000, Lot No. 1; CYP3A4/BFC: Cat. No. HTS-1000, Lot No. 1) were used to perform the assays.
(§2) Eight inhibitor and test compound concentrations were tested using 3-fold serial dilutions. The microtitre plates containing 0.1 mL/well of the latter mixture were pre-warmed to 37° C. in an incubator. […] The amount of metabolic product formed was quantified by fluorescence detection in a fluorescence plate reader utilizing excitation and emission filters that had been optimized for the detection of each metabolite.
(§3) Data Analysis—The mean of the duplicate fluorescent signals in the presence and absence (vehicle control) of each compound was calculated and corrected for the background noise. Percent inhibition was calculated as the difference in the corrected fluorescent signals in the absence and presence of the compound, divided by the corrected fluorescent signal in the absence of compound, multiplied by 100%.

CYP2A6 = biological target: T2, CYP2A6 (Homo sapiens, UniProt P11509); assay: CYP2A6 inhibition assay (substrate coumarin)
T2 sequence (P11509 1-494): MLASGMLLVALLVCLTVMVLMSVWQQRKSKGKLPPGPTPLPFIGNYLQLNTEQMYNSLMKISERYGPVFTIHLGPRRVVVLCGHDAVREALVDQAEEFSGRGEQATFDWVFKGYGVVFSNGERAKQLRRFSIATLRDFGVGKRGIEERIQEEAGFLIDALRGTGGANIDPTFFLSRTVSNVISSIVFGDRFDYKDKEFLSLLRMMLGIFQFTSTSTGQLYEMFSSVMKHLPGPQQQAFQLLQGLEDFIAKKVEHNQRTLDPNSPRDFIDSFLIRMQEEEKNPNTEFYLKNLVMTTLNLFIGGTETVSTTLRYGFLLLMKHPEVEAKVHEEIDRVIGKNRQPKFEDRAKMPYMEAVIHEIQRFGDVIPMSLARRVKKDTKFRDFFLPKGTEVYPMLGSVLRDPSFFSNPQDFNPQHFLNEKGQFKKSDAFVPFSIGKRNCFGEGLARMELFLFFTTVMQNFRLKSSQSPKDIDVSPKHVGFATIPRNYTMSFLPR
From the text: as §1, §2, §3

CYP2E1 = biological target: T3, CYP2E1 (Homo sapiens, UniProt P05181); assay: CYP2E1 inhibition assay (substrate MFC); assay type: in vitro ADME
T3 construct: purchased Gentest Corp; host or cells: insect cells (baculovirus)
Protocol: All determinations were performed in duplicate.

[1] = test system: patients with mild to moderate hypertension, hyperlipidemia and diabetes mellitus; assay: 14-week open-label forced dose-escalation study of P5P in hypertensive diabetics (concomitant statin); assay type: in vivo, human; details: individual patient; for Chol:HDL ratio V.1 / HDL cholesterol V.1 / LDL cholesterol V.1 / Total cholesterol V.1 / Triglycerides V.1: V1: 1st visit, Week One, Day 1, on statin; for Triglycerides V.12 / Chol:HDL ratio V.12 / HDL cholesterol V.12 / LDL cholesterol V.12 / Total cholesterol V.12: V12: Last Visit, Week 14, Day 98; for Triglycerides V.12: concomitant P5P (250 to 750 mg once daily) and statin; for Chol:HDL ratio V.12 / HDL cholesterol V.12 / LDL cholesterol V.12 / Total cholesterol V.12: concomitant P5P and statin
From the text: Patient Definition-Patients meeting all of the inclusion criteria and none of the exclusion criteria were eligible for enrollment. The primary inclusion criteria were hypertension and diabetes. At screening all patients must present with or have a history of, uncomplicated, stable, mild to moderate hypertension, (supine diastolic blood pressure SUDBP ≧90 and ≦114 mm Hg) regardless of use or non-use of treatment for this disease. […] The hypertensive patients must present with and have a history (>24 months) of diabetes mellitus (type 1 or 2), that is controlled or uncontrolled, at both screening and treatment initiation visits, to be eligible for inclusion in the study. Other than having diabetes and hypertension, patients must be in good health for their age. A history and physical examination must be within age-related normal limits, or if abnormal, considered clinically insignificant in the opinion of the investigator. Laboratory tests (CBC with differential, prothrombin and partial thrombo-plastin times, platelet count, and urinalysis and blood chemistry panel), must be normal, or if abnormal, considered clinically insignificant. Patients must have a normal ECG or, if abnormal, considered clinically insignificant. […] Essentially, all patients complete a fixed four-week placebo lead-in, to qualify for initiation of active treatment. Eligible patients then begin treatment with 250 mg/day of […]. This dose was administered orally on a daily basis for the next two (2) weeks, subject to dose-limiting side-effects, after which patients are force-titrated to 500 mg/day of […]. […] Thereafter, and for the final four (4) weeks of the study all patients were treated with placebo medication. […] Patients who were on anti-lipid medication prior to the initiation of the study continued their anti-lipid regime throughout the study. Primary Efficacy Evaluations • Supine diastolic blood pressure (SUDBP) measured at specified intervals; • Triglyceride, total cholesterol, LDL cholesterol, and HDL levels measured at specified intervals. […] Dosage Regimens-All patients receive treatment medication once daily, in the morning one hour before breakfast. At each dosing, the prescribed number of tablets will be taken orally, with water, to allow for the following dosing levels: The first dose of study medication is administered at clinic under the supervision of clinic personnel. Patients previously on anti-lipid therapy continued their anti-lipid regime unchanged throughout the study.

[2] = read-out: Expected Inhibitor IC50, value expected from assay validation (mean ± S.D., n ≧ 8 experiments)
[3] = read-out: Observed Inhibitor IC50

T3 sequence (P05181 whole entry): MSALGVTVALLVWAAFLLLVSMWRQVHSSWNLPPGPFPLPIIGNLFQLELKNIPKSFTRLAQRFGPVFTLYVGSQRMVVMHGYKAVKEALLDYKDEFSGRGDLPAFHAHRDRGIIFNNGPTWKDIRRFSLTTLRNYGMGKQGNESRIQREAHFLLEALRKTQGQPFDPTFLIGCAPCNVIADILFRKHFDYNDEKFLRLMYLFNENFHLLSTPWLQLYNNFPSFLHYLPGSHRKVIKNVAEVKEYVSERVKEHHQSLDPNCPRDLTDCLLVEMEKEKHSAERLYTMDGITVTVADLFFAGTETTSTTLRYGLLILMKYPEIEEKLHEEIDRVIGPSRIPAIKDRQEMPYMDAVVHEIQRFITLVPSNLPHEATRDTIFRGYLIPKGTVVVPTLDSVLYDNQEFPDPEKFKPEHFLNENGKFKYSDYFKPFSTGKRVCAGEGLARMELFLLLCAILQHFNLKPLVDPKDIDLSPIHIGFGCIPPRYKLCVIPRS

Q: How did the IC50 (CYP2B6; [2]) turn out when N[C@@H]1C[C@H]1c1ccccc1 (racemic) [Tranylcypromine] was run?
A: Its IC50 is 8.82 ± 2.43 µM.

Q: What about the IC50 (CYP2B6; [3]) of the same compound?
A: Its IC50 is 6.59 µM.

Q: And the IC50 (CYP2A6; [2])?
A: Its IC50 is 990 ± 209 nM.

Q: And the IC50 (CYP2A6; [3])?
A: The IC50 was 605 nM.

Q: For CCN(CC)C(=S)S [DDTC, Diethyldithiocarbamic acid], which IC50 (CYP2E1; [3]) is on record?
A: The IC50 was 3.56 µM.

Q: What about the IC50 (CYP2E1; value expected from assay validation (mean ± S.D., n ≧ 8 experiments), read-out: Expected Inhibitor IC50) of the same compound?
A: The IC50 was 5.06 ± 1.96 µM.

Q: For CC(C)c1c(C(=O)Nc2ccccc2)c(-c2ccccc2)c(-c2ccc(F)cc2)n1CC[C@@H](O)C[C@@H](O)CC(=O)O [Lipitor, atorvastatin], which “Chol:HDL ratio V.1” value [1] is on record?
A: Its value is 5.0 and 2.2.

Q: What about the “HDL cholesterol V.1” value [1] of the same compound?
A: The value was 43 mg/dL and 62 mg/dL.

Q: What about the “LDL cholesterol V.1” value [1] of the same compound?
A: Its value is 123 mg/dL and 55 mg/dL.

Q: And the “Total cholesterol V.1” value [1]?
A: Its value is 217 mg/dL and 136 mg/dL.

Q: And the “Triglycerides V.1” value [1]?
A: The value was 255 mg/dL and 96 mg/dL.

Q: What about the “Triglycerides V.12” value [1] of the same compound?
A: The value was 179 mg/dL and 106 mg/dL.

Q: What about the “Chol:HDL ratio V.12” value [1] of the same compound?
A: The value was 5.6 and 2.1.

Q: What about the “HDL cholesterol V.12” value [1] of the same compound?
A: Its value is 48 mg/dL and 75 mg/dL.

Q: And the “LDL cholesterol V.12” value [1]?
A: Its value is 183 mg/dL and 63 mg/dL.

Q: What about the “Total cholesterol V.12” value [1] of the same compound?
A: The value was 267 mg/dL and 159 mg/dL.

Q: For CC[C@H](C)C(=O)O[C@H]1C[C@H](O)C=C2C=C[C@H](C)[C@H](CC[C@@H](O)C[C@@H](O)CC(=O)O)[C@H]21 [Pravachol, pravastatin], which “Chol:HDL ratio V.1” value [1] is on record?
A: Its value is 9.5.

Q: What about the “HDL cholesterol V.1” value [1] of the same compound?
A: Its value is 33 mg/dL.

Q: What about the “Total cholesterol V.1” value [1] of the same compound?
A: Its value is 313 mg/dL.

Q: What about the “Triglycerides V.1” value [1] of the same compound?
A: The value was 667 mg/dL.

Q: What about the “Triglycerides V.12” value [1] of the same compound?
A: The value was 365 mg/dL.

Q: What about the “Chol:HDL ratio V.12” value [1] of the same compound?
A: The value was 8.4.

Q: What about the “HDL cholesterol V.12” value [1] of the same compound?
A: Its value is 29 mg/dL.

Q: What about the “Total cholesterol V.12” value [1] of the same compound?
A: The value was 243 mg/dL.

Q: For CCC(C)(C)C(=O)O[C@H]1C[C@@H](C)C=C2C=C[C@H](C)[C@H](CC[C@@H]3C[C@@H](O)CC(=O)O3)[C@H]21 [Zocor, simvastatin], which “Chol:HDL ratio V.1” value [1] is on record?
A: Its value is 3.9 and 6.3.

Q: And the “HDL cholesterol V.1” value [1]?
A: Its value is 39 mg/dL and 43 mg/dL.

Q: What about the “LDL cholesterol V.1” value [1] of the same compound?
A: Its value is 80 mg/dL and 185 mg/dL.

Q: And the “Total cholesterol V.1” value [1]?
A: The value was 152 mg/dL and 272 mg/dL.

Q: What about the “Triglycerides V.1” value [1] of the same compound?
A: Its value is 164 mg/dL and 222 mg/dL.

Q: And the “Triglycerides V.12” value [1]?
A: The value was 212 mg/dL and 187 mg/dL.

Q: What about the “Chol:HDL ratio V.12” value [1] of the same compound?
A: Its value is 4.1 and 5.8.

Q: And the “HDL cholesterol V.12” value [1]?
A: The value was 35 mg/dL and 40 mg/dL.

Q: What about the “LDL cholesterol V.12” value [1] of the same compound?
A: Its value is 68 mg/dL and 153 mg/dL.

Q: And the “Total cholesterol V.12” value [1]?
A: Its value is 145 mg/dL and 230 mg/dL.
